Laboratory results from patent US12642771B2, “Compositions comprising PGI2-receptor agonists and processes for the preparation thereof” (Arena Pharmaceuticals, Inc., priority 2017, dated 2026).

Assay: Release (dissolution) profile of modified-release tablets, USP Apparatus 1 (baskets) at 100 rpm, 500 mL aqueous sodium phosphate 0.05 M, pH 6.8
Assay type: physicochemical
Description: USP Apparatus 1 (BASKETS) is described, for example, in the United States Pharmacopeial Convention, Feb. 1, 2012, Chapter <711> (“Dissolution”), incorporated by reference herein in its entirety. See http://www.usp.org/sites/default/files/usp_pdf/EN/USPNF/revisions/m99470-gc_711.pdf. The USP Apparatus 1 (baskets) assembly consists of the following: a vessel, which may be covered, made of glass or other inert, transparent material; a motor; a metallic drive shaft, and a cylindrical basket. The materials should not sorb, react, or interfere with the specimen being tested. The vessel is partially immersed in a suitable water bath of any convenient size or heated by a suitable device such as a heating jacket. The water bath or heating device permits holding the temperature inside the vessel at 37±0.5° during the test and keeping the bath fluid in constant, smooth motion. No part of the assembly, including the environment in which the assembly is placed, contributes significant motion, agitation, or vibration beyond that due to the smoothly rotating stirring element. An apparatus that permits observation of the specimen and stirring element during the test is preferable. The vessel is cylindrical, with a hemispherical bottom and with one of the following dimensions and capacities: for a nominal capacity of 1 L, the height is 160 mm to 210 mm and its inside diameter is 98 mm to 106 mm; for a nominal capacity of 2 L, the height is 280 mm to 300 mm and its inside diameter is 98 mm to 106 mm; and for a nominal capacity of 4 L, the height is 280 mm to 300 mm and its inside diameter is 145 mm to 155 mm. Its sides are flanged at the top. A fitted cover may be used to retard evaporation. If a cover is used, it provides sufficient openings to allow ready insertion of the thermometer and withdrawal of specimens. The shaft is positioned so that its axis is not more than 2 mm at any point from the vertical axis of the vessel and rotates smoothly and without significant wobble that could affect the results. The vertical center line of the blade passes through the axis of the shaft so that the bottom of the blade is flush with the bottom of the shaft. A distance of 25±2 mm between the bottom of the blade and the inside bottom of the vessel is maintained during the test. The metallic or suitably inert, rigid blade and shaft comprise a single entity. A suitable two-part detachable design may be used provided the assembly remains firmly engaged during the test. […]
The release profiles for modified-release tablets were measured using USP Apparatus 1 (baskets).
All release profiles disclosed in Tables 6a-6d were measured with USP Apparatus 1 (baskets) at 100 rpm in 500 mL of aqueous sodium phosphate at a concentration of 0.05 M (pH=6.8). […]

O=C(O)COC[C@H]1CC[C@H](COC(=O)N(c2ccccc2)c2ccc(Cl)cc2)CC1 [Compound 1, 2-(((1r,4r)-4-(((4-chlorophenyl)(phenyl)carbamoyloxy)methyl)cyclohexyl)methoxy)acetic acid]
difference of % by weight released, initial profile vs after storage (tablets 0.05 mg and 0.5 mg Compound 1 (FIGS. 12, 13), storage at 40° C. and 75% RH for six months, any time point equal to or greater than 2 hours): ≤ 10%
release rate relative to modified-release capsule (tablets 0.5 mg Compound 1 with 40% HPMC K4M CR, 100 mg, 7 kP): faster than that of the modified-release capsule
release rate relative to modified-release capsule (tablets with 30% HPMC K4M and 20% HPMC K100 LVCR, wet granulation): slightly faster than that of the modified-release capsule
release rate relative to modified-release capsule (tablets with 40% HPMC K4M and 10% HPMC K100 LVCR, wet granulation): faster than that of the modified-release capsule at time points <6 hrs but slower than that of the modified-release capsule at time points 6 hrs
